Laboratory results as given in patent US20050143472A1, “Novel treatment for pathologies associated with oxidative damage” (priority 2002, published 2005).
Like-named read-outs stand apart in the source and are kept apart here.

Legend:
mPAO [1] = target: T1, mPAO (Mus musculus, UniProt Q8C0L6); test: Oxygraph assay of O2 consumption, progress-curve analysis; assay type: biochemical, murine
T1 construct: the full length cDNA of mpao was released by Nde I and Hind III treatment, and ligated into Nde I and Hind III sites of pET29c; made in house; host or cells: E. coli BL21 GOLD (DE3), plasmid pET-MPAO (pET29c)
Procedure: Some assays (oxygraph assays) were carried out by directly monitoring O2 consumption in air-saturated buffer ([O2]=0.237 mM) or buffer saturated with pure O2 at 30° C. ([O2]=1.12 mM). The depletion of O2 was detected with a Yellow Springs Instruments, Inc. Model 53 Oxygen Monitor equipped with a Clark electrode. […] Following a published procedure (Goudar et al., Biochim. Biophys. Acta 1429:377-383 [1999]), the data were fitted to the integrated Mechaelis-Menton equation. The analyses were done using Maple VI (Windows 2000) software (Waterloo Maple, Inc.) running on a PC computer. […] Inhibition by the H2O2, formed as a product of polyamine oxidation by mPAO, was assessed by addition of 2 μL of a 30 mg/mL (30,000 units/mg) solution of catalase, after [O2] reached zero.
The catalase immediately converted each mole of H2O2 to 0.5 mol of O2 (since [O2]=1.12 mM for pure O2-saturated buffer, then [O2]=0.56 mM immediately after catalase addition). In the presence of catalase, O2 depletion should occur at 0.5× the rate as it does in the absence of catalase (unless H2O2 inhibition is operating). With catalase present, each molecule of O2 will be converted eventually to H2O (4-electron equivalents), rather than to H2O2 (2-electron equivalents).

mPAO [2] = target: T1, mPAO; test: Steady-state kinetic spectrophotometric assay of mPAO (H2O2 formation); assay type: biochemical, murine
Procedure: In this example the methods used to examine mPAO steady state kinetics are described. Spectrophotometric assays were done at 30° C. in a potassium phosphate buffer (e.g., 50 mM KH2PO4/KOH buffer, pH 7.6 saturated in air or in pure oxygen), using a published procedure which provides a continuous monitor of the H2O2 produced (Holt et al., Anal. Biochem. 244:384-392 [1997]). These assays were done in 1 mL cuvette with 0.8 mL of solution containing varying amounts of substrate, 1 mM vanillic acid, 0.5 mM 4-aminopyrine, 4 units of horseradish peroxidase, and 0.1-0.2 μg of mPAO. The reactions were monitored at 498 nm with a UVIKON 840 spectrophotometer (KONTRON Instruments) for the formation of the quinoneimine dye (ε498=4,650 M^−1cm^−1 at pH 7.6), the condensation product of vanillic acid and oxidized 4-aminopyrine. The latter is produced from 4-aminopyrine by the action of horseradish peroxidase that has been oxidized by H2O2 (Holt et al., supra [1997]). The assays were done at 25° C. by varying the concentration of the amine substrate, while the oxygen concentration in the assay solution was constant at the air-saturating level of 237 μM. The data were fit, by nonlinear regression to steady-state kinetic equations (McIntire et al., Biochem. J. 228:325-335 [1985]), which provided the values, and standard deviations thereof, for kcat′, KS′ and kcat′/KS′ (=Q, the specificity constant). [formula]
The dissociation constants, KD, for these and other amines were estimated in the following manner. It was assumed that the competition was competitive, since in the presence of the inhibitors, at a saturating N^1-acetyl-Spm concentration, the rate of the reaction was equal to the value of the true kcat. It was also assumed that the mechanism is of the ping-pong type. Thus, the applicable steady-state equation is (Segal, Enzyme Kinetics, John Wiley & Sons, New York, pp. 606-625 [1975]): [formula]
On the left, kcat and KS are the steady-state parameters for N^1-acetyl-Spm (S), and I and KI (=KD), represent the inhibitor and its inhibition constant, respectively. KIO and KO are the inhibition constant and Michaelis constant for O2, respectively. The equation can be converted to the expression on the right side when: [formula]
The expressions for kcat′ and KS′ (at the fixed [O2]=[…]) are the same as those when the inhibitor is absent. Since the values of kcat′ and KS″ were predetermined, inhibition assays were carried out where [S]≈KS″, which, in the absence of I, would give a rate, ν≈0.5×kcat″. In these assay, for each inhibitor, [I] was adjusted so the apparent rate was somewhat less then 0.5 kcat′. In this situation, after substitution and rearrangement, Equation 1 reduces to: [formula]
Since [I] and kcat′ are known, and ν is the measured rate in the presence of the inhibitor, the value of KI′ can be estimated. It is assumed that these apparent KI′ are good approximations of the true KI (=KD) values. […] The estimated KI′ values provided in Table 1, are the averages of these four values. If the reactions of the polyamine substrates and O2 with mPAO obeys a ping-pong type mechanism, the apparent values, kcat′/KS′, are equal to the true kcat/KS values.

hpao mRNA = system: hpao mRNA
Procedure: In addition, a reverse-transcriptase-PCR (RT-PCR) experiment was performed to analyze the expression of hpao in OVCAR-3 and HL-60 cells. Briefly, about 10^6 to 10^7 cells were harvested and the total RNA of each sample was isolated by using the RNeasy miniprep kit (QIAGEN). A 1 μg mRNA sample was used for cDNA synthesis with the MMLV reverse transcriptase following the manufacturer's instructions provided with the Advantage RT-for-PCR Kit (Clontech). Human liver and placenta polyA mRNA were also obtained from Clontech. cDNA amplification was achieved following the SMART RACE™ cDNA Amplification method (Clontech). A pair of gene specific primers was generated based on the hpao cDNA sequence; hpao1 was the sense primer 5′-[…] ACCTTTC-3′ (SEQ ID NO:17), and hpao2R was the antisense primer 5′-[…] AGT-3′ (SEQ ID NO:18). Positive control amplimers for human G3PDH (glyceraldehyde-3-phosphate-dehydrogenase) were also used; the sense primer was 5′-[…] G-3′ (SEQ ID NO:19) and the antisense primer was 5′-[…] CT-3′ (SEQ ID NO:20). PCR was performed at 94° C. for 3 min, 25 cycles at 94° C. for 10 sec, 68° C. for 1 min, and 72° C. for 1 min.
In this Example, the method used to examine hpao mRNA production by cultured cells undergoing apoptosis is described.

T1 sequence (Q8C0L6 whole entry E184K/L285S/R416L/R417S/Q419R/E451A/V490I/S491G/V497A): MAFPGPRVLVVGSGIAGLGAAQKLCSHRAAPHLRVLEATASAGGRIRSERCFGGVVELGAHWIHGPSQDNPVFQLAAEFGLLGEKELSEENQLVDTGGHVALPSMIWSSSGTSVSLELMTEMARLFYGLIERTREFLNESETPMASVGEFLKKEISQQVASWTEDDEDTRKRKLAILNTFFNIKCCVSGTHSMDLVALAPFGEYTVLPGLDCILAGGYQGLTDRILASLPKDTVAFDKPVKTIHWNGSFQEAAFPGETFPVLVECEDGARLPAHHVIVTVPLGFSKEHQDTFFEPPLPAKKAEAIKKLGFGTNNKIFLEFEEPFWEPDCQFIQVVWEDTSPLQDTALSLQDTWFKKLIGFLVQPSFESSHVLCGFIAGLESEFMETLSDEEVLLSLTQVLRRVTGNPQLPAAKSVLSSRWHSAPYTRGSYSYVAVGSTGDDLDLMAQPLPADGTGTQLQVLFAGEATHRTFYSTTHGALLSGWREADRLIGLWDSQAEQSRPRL

SMILES: CC(=O)NCCCNCCCCNCCCN [N^1-acetyl-Spm, N^1-acetyl-spermine]
- KQ (mPAO [1]; Michaelis constant for O2, saturating amine substrate): 180 ± 20 µM
- kcat/KQ (mPAO [1]; for O2, saturating amine substrate, pure O2-saturated buffer): (4.4 ± 0.4) × 10^4 M^−1sec−^1
- KS(calc) (mPAO [1]; true KS calculated from apparent KS′ with KS = KS′(1 + KO/[O2])): 3.1 ± 0.3 µM
- kcat (mPAO [1]; true value, saturating substrate (3.7 mM), buffer saturated with pure O2 (1.12 mM)): 8.0 ± 0.8 s⁻¹
- kcat′ (mPAO [2]; apparent value, air-saturated 50 mM KH2PO4/KOH buffer pH 7.6, [O2] 237 μM): 4.53 ± 0.05 s⁻¹
- KS′ (mPAO [2]; apparent value, air-saturated buffer pH 7.6, [O2] 237 μM): 1.78 ± 0.1 µM
- substrate for mPAO (oxidation by mPAO) (mPAO [2]; in words): good mPAO substrates
- kcat′/KS′ (mPAO [2]; specificity constant, air-saturated buffer pH 7.6): (2.54 ± 0.01) × 10^6 M^−1sec^−1
- hpao mRNA level (hpao mRNA; HL-60 cells, 48 hr exposure to high concentrations): no change
- hpao mRNA level (hpao mRNA; OVCAR-3 cells, very quickly after exposure): significant levels of hpao mRNA were induced
